From patent US20250002473A1, “QUINOXALINE DERIVED SULFONAMIDES WITH EGFR DEGRADATION ACTIVITIES AND THEIR USES THEREOF” (Accutar Biotechnology Inc., priority 2023, published 2025) come the findings set out here.

Where two headings read alike, the source gives them in different places.

Common to all, as to type: cell-based
Assay [1] has as its target T1, NCl-H292 (EGFR_WT) (Homo sapiens, UniProt P00533).
T1 construct: endogenous in cells; host or cells: A431, NCI-H2073, NCI-H292
Put plainly: EGFR degradation assay (western blot), NCl-H292 cells. The settings on record: Table 5; NCI-H292 cells (EGFR_WT), 24 h. The procedure:
(§1) A431 (EGFR_WT), NCl-H2073 (EGFR_WT), NCl-H292 (EGFR_WT), BaF3_YVAM (Her2_A775insYVAM), BaF3_SVD (EGFR_D770insSVD), BaF3_ASV (EGFR_A776inASV), or BaF3_DTC (EGFR_Exon19del/T790M/C797S) cells were seeded in a 24-well plate at a density of 4×10^5 cells per well for EGFR WT cells and 8× cells per well for EGFR or Her2 mutant cells, and the plates were incubated overnight. The cells were treated with the desired compounds for 24 h. The culture medium was removed, and 100 μL of RIPA buffer (Beyotime, P0013B) containing 1% Protease Inhibitor Cocktail (Bimake, B14001), 1% Phosphatase Inhibitor Cocktail 2 (Sigma, P5726), and 1% Phosphatase Inhibitor Cocktail 3 (Sigma, P0044) were added to lyse the cells. Then, the cell lysates were transferred to 1.5 mL microcentrifuge tubes and centrifuged at 12,000 rpm and 4° C. for 30 min. The supernatants were transferred into new tubes, and the protein concentration was determined using the BCA protein quantification method. All samples were diluted to the same concentration using RIPA buffer, loading buffer was added, samples were denatured, and 15 μg of protein per lane was loaded onto a SurePAGE 4-20% Bis-Tris gel. Samples were separated via electrophoresis in MOPS running buffer at 180 V for 100 min. […] Fluorescence was detected using the Odyssey CLx Imaging System, and the data were analyzed with Empiria Studio Software and GraphPad Prism 9. […]

Assay [2] relates to A431. The assay can be described thus: Cell growth inhibition assay (CellTiter-Glo), A431. The note with it: Homo sapiens, A431 cells. The procedure, abridged:
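Cells were plated in 96-well plates (Corning 3610) at 90 μL of culture medium per well and incubated overnight at 37° C. The next day, a 1,000× DMSO compound stock was diluted 1:100 in cell culture medium, and 10 μL was added per well. After shaking for 10 min, luminescence was read on an Envision (PerkinElmer) reader.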
(Cellular ATP, detected with luciferase, serves as a proxy for viable cell number.)

In assay [3] the target is T2, NCl-H2073 (EGFR_WT) (Homo sapiens, UniProt P00533).
T2 construct: endogenous in cells; host or cells: A431, NCI-H2073, NCI-H292
T2 sequence (P00533 25-1210): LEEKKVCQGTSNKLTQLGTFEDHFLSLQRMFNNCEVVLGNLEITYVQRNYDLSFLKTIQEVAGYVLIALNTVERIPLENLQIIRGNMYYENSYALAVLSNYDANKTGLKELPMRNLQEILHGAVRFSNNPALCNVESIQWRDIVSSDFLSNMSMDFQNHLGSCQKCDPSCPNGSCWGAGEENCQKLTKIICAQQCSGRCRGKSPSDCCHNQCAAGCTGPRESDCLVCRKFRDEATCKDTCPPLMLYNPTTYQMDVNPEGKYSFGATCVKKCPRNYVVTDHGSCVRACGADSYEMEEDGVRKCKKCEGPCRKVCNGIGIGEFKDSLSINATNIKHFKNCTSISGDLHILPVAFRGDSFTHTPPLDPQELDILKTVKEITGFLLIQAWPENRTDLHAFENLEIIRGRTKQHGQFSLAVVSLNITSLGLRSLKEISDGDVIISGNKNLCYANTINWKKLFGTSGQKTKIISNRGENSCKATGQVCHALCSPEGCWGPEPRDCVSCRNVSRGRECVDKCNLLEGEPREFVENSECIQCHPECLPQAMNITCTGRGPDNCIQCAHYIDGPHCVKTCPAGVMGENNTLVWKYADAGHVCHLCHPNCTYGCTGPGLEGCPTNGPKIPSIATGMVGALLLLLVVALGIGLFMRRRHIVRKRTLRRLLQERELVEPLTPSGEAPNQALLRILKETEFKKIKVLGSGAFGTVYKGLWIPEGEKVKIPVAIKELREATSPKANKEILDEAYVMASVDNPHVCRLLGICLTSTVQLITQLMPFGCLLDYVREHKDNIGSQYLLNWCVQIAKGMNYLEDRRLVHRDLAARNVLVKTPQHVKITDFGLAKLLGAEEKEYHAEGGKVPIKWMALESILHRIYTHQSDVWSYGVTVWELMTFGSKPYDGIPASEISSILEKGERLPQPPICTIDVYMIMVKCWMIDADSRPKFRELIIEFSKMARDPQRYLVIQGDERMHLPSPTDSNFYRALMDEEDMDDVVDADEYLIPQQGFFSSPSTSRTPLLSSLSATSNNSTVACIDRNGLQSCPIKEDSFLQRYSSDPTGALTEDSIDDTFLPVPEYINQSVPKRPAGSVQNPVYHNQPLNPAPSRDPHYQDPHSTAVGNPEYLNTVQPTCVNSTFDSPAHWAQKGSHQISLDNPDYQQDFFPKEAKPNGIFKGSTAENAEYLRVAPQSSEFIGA
Put plainly: EGFR degradation assay (western blot), NCl-H2073 cells. The settings on record: Table 5; NCI-H2073 cells (EGFR_WT), 24 h. The procedure: as §1
For orientation: Immunoblotting shows a protein as a band on a membrane.

Assay [4] concerns BaF3_YVMA. The assay can be described thus: Cell growth inhibition assay (CellTiter-Glo), BaF3_YVMA. The procedure:
Cells were seeded in a 96-well plate (Corning 3610) with 90 μL of culture medium per well, and plates were incubated at 37° C. overnight. A 1,000× DMSO stock solution of the desired compound was prepared the following day. A compound dilution plate was prepared by diluting the stock solution 1:100 in the corresponding cell culture medium, 10 μL of the diluted compound solution was added to each 96-well plate well containing the seeded cells. […] The content of the wells was mixed by shaking continuously for 10 min, and luminescence was measured using Envision (PerkinElmer). The data were analyzed with GraphPad Prism 9 (see FIG. 50).
Table 6, Table 7, and Table 8 list the cell growth inhibition results, where Gls0 represents the compound concentration to cause 50% cell growth inhibition in comparison with DMSO.

T1 sequence (P00533 25-1210): as above

In general, DC50 refers to the concentration at which degradation of the target reaches its halfway point. Read a high DC50 as degradation only at high concentration. A word on the GI50: it is the concentration at which growth is held to half of that of the control. Consider `CCc1cc(Nc2ncc(Br)c(Nc3ccc4nccnc4c3NS(C)(=O)=O)n2)c(OC)cc1N1CCC(N2CCN(CCc3cccc4c3n(CC)c(=O)n4C3CCC(=O)NC3=O)CC2)CC1` (stereo not drawn) [Compound 11, N-(6-((5-bromo-2-((4-(4-(4-(2-(1-(2,6-dioxopiperidin-3-yl)-3-ethyl-2-oxo-2,3-dihydro-1H-benzo[d]imidazol-4-yl)ethyl)piperazin-1-yl)piperidin-1-yl)-5-ethyl-2-methoxyphenyl)amino)pyrimidin-4-yl)amino)quinoxalin-5-yl)methanesulfonamide], for which the DC50 in assay [1] and in assay [3] was over 1000 nM in each case. Moreover, the 50% growth inhibitory concentration (GI50) was 2500 nM in assay [2] (A-431, 24 h, Table 7, head prints 24 h, read-out: GI50 (nM), 24 h, A431); over 1000 nM in assay [2] (A-431, 72 h, Table 6, three days, CellTiter-Glo, read-out: A431 GI50); 188 nM in assay [4] (Table 7, BaF3_YVMA cells, head prints 24 h). Further, the “Potency in cell growth inhibition compared with Compound A (BaF3_YVMA)” value in assay [4] (BaF3_YVMA, comparison with Compound A, in words) is reported as “significantly increased potency”.
